Laboratory results reported in patent US12453349B2, “Compositions comprising pyridine carboxylate herbicides and 4-hydroxyphenyl-pyruvate dioxygenase (HPPD) inhibitor herbicides” (Corteva Agriscience LLC, priority 2018, dated 2025).
Values joined by “and” are separate entries in the source; they are usually repeats but may differ in a detail not shown here. Equal entries are not always repeated.

Legend:
Format in all cases: in vivo
[1] = system: LOLMU, Lolium multiflorum (Italian ryegrass); experiment: Greenhouse postemergence herbicidal effect, visual injury 20-22 d after application
Excerpt: (§1) Seeds of the desired test plant species were planted in a 90:10% v/v (volume/volume) mixture of PRO-MIX® BX (Premier Tech Horticulture, Quakertown, PA, USA) and PROFILE® GREENS GRADE™ (Profile Products LLC, Buffalo Grove, IL, USA) planting mixture, which typically has a pH of 5.2 to 6.2 and an organic matter content of at least 50 percent, in plastic pots with a surface area of 103.2 square centimeters (cm^2). In some aspects, to help ensure good germination and healthy plants, a fungicide treatment and/or other chemical or physical treatment was applied. The plants were grown for 7-36 days (d) in a greenhouse with an approximate 14-hour (h) photoperiod which was maintained at about 23° C. during the day and 22° C. during the night. Nutrients and water were added on a regular basis and supplemental lighting was provided with overhead metal halide 1000-Watt lamps as necessary. The plants were employed for testing when they reached the second or third true leaf stage.
(§2) Emulsifiable concentrates of each of each pyridine carboxylate herbicide (Compound A or Compound B) were prepared at 100 grams acid equivalent per liter (g ae/L). The emulsifiable concentrates also included a safener, cloquintocet mexyl, at 120 grams active ingredient per liter (g ai/L). An aliquot of each emulsifiable concentrate was placed in a 25 mL glass vial and diluted with an aqueous mixture of 1.25% (v/v) ACTIROB® B esterified rapeseed oil (Bayer Crop Science, Research Triangle Park, NC, USA) or MSO® Concentrate with LECI-TECH® methylated soybean oil (Loveland Products, Loveland, CO, USA) to obtain concentrated stock solutions at the highest application rate for each herbicide, based upon a 12 milliliter (mL) application volume at a rate of 187 liters per hectare (L/ha). The concentrated stock solutions were further diluted with an aqueous mixture of 1.25% v/v ACTIROB® B or MSO® Concentrate with LECI-TECH® to obtain stock solutions at reduced application rates for each herbicide. Spray solutions of the herbicide combinations (Compound A or Compound B plus HPPD inhibitor herbicide) were prepared by adding weighed amounts or aliquots of the HPPD inhibitor herbicides to the stock solutions of Compound A or Compound B to form 12-mL spray solutions in two-way combinations.
(§3) The spray solutions were applied to the plant material with an overhead Mandel track sprayer equipped with 8002E nozzles calibrated to deliver 187 L/ha over an application area of 0.503 square meters (m^2) at a spray height of 18 inches (43 centimeters (cm)) above the average plant canopy. Control plants were sprayed in the same manner with the solvent blank. All pyridine carboxylate herbicide (component a) application rates are given as “g ae/ha” and all HPPD inhibitor herbicide (component b) application rates are given as “g ai/ha.”
(§4) The treated plants and control plants were placed in a greenhouse as described above and watered by sub-irrigation to prevent wash-off of the test compounds. After 20-22 d, the condition of the test plants as compared with that of the control plants was determined visually and scored on a scale of 0 to 100 percent where 0 corresponds to no injury and 100 corresponds to complete kill.

[2] = system: ECHCG, Echinochloa crus-galli (barnyard grass); experiment: as above
Excerpt: as §1, §2, §3, §4

[3] = system: DIGSA, Digitaria sanguinalis (large crabgrass); experiment: as above
Excerpt: as §1, §2, §3, §4

[4] = system: BRSNN, Brassica napus (spring rape); experiment: as above
Excerpt: as §1, §2, §3, §4

[5] = system: SETFA, Setaria faberi (giant foxtail); experiment: as above
Excerpt: as §1, §2, §3, §4

[6] = system: KCHSC, Kochia scoparia (kochia); experiment: as above; settings: Bassia scoparia, post-emergence, KCHSC, read-out: % visual injury Obs
Excerpt: as §1, §2, §3, §4

[7] = system: STEME, Stellaria media (chickweed); experiment: as above
Excerpt: as §1, §2, §3, §4

[8] = system: AMARE, Amaranthus retroflexus (pigweed); experiment: as above
Excerpt: as §1, §2, §3, §4

[9] = system: MATCH, Matricaria chamomilla (wild chamomile); experiment: as above
Excerpt: as §1, §2, §3, §4

[10] = system: IPOHE, Ipomoea hederacea (ivyleaf morningglory); experiment: as above
Excerpt: as §1, §2, §3, §4

[11] = system: ABUTH, Abutilon theophrasti (velvetleaf); experiment: as above
Excerpt: as §1, §2, §3, §4

[12] = system: BRSNW, Brassica napus (winter rape); experiment: as above
Excerpt: as §1, §2, §3, §4

[13] = system: HELAN, Helianthus annuus (common sunflower); experiment: as above
Excerpt: as §1, §2, §3, §4

[14] = system: POLCO, Polygonum convolvulus (wild buckwheat); experiment: as above
Excerpt: as §1, §2, §3, §4

[15] = system: EPHHL, Euphorbia heterophylla (poinsettia); experiment: as above
Excerpt: as §1, §2, §3, §4

[16] = system: SASKR, Salsola kali (Russian thistle); experiment: as above
Excerpt: as §1, §2, §3, §4

[17] = system: CHEAL, Chenopodium album L. (common lambsquarters); experiment: as above
Excerpt: as §1, §2, §3, §4

[18] = system: VIOTR, Viola tricolor (wild pansy); experiment: as above
Excerpt: as §1, §2, §3, §4

[19] = system: SINAR, Sinapis arvensis (wild mustard); experiment: as above
Excerpt: as §1, §2, §3, §4

[20] = system: HORVS, Hordeum vulgare (spring barley); experiment: Greenhouse postemergence phytotoxicity on crop, visual injury 20-22 d after application
Excerpt: as §1, §2, §3, §4

[21] = system: TRZAS, Triticum aestivum (spring wheat); experiment: as above
Excerpt: as §1, §2, §3, §4

[22] = system: CIRAR, Cirsium arvense (Canadian thistle); experiment: Greenhouse postemergence herbicidal effect, visual injury 20-22 d after application
Excerpt: as §1, §2, §3, §4

CS(=O)(=O)c1ccc(C(=O)C2=C(Sc3ccccc3)C3CCC(C3)C2=O)c(Cl)c1 (stereo not shown) [Benzobicyclon, 3-[2-chloro-4-(methylsulfonyl)benzoyl]-4-(phenylthio)bicyclo[3.2.1]oct-3-en-2-one]
% visual injury Obs ([1]; Benzobicyclon 50 g ai/ha): 0% | % visual injury Obs ([2]; Benzobicyclon 50 g ai/ha): 0% | % visual injury Obs ([3]; Benzobicyclon 50 g ai/ha): 10% | % visual injury Obs ([4]; Benzobicyclon 50 g ai/ha): 8% | % visual injury Obs ([5]; Benzobicyclon 50 g ai/ha): 0% | pest or weed control at 50 g/ha ([6]; Benzobicyclon 50 g ai/ha): 0% | % visual injury Obs ([7]; Benzobicyclon 50 g ai/ha): 28%

N#CCOC(=O)c1nc(-c2ccc3cc[nH]c3c2F)c(F)c(N)c1Cl [Compound A, cyanomethyl 4-amino-3-chloro-5-fluoro-6-(7-fluoro-1H-indol-6-yl)pyridine-2-carboxylate]
% visual injury Obs ([1]; Compound A 7.5 g ae/ha): 8% | % visual injury Obs ([1]; Compound A 10 g ae/ha): 3% | % visual injury Obs ([8]; Compound A 7.5 g ae/ha): 80% and 90% and 70% | % visual injury Obs ([8]; Compound A 10 g ae/ha): 85% and 90% | % visual injury Obs ([9]; Compound A 7.5 g ae/ha): 10% and 18% | % visual injury Obs ([9]; Compound A 10 g ae/ha): 20% and 30% | % visual injury Obs ([10]; Compound A 7.5 g ae/ha): 5% | % visual injury Obs ([10]; Compound A 10 g ae/ha): 0% | % visual injury Obs ([11]; Compound A 7.5 g ae/ha): 40% | % visual injury Obs ([11]; Compound A 10 g ae/ha): 48% | % visual injury Obs ([2]; Compound A 7.5 g ae/ha): 80% | % visual injury Obs ([2]; Compound A 10 g ae/ha): 88% | % visual injury Obs ([12]; Compound A 7.5 g ae/ha): 35% and 63% | % visual injury Obs ([12]; Compound A 10 g ae/ha): 40% and 68% | % visual injury Obs ([13]; Compound A 7.5 g ae/ha): 83% | % visual injury Obs ([13]; Compound A 10 g ae/ha): 88% | % visual injury Obs ([14]; Compound A 10 g ae/ha): 70% and 43% | % visual injury Obs ([15]; Compound A 7.5 g ae/ha): 91% | % visual injury Obs ([15]; Compound A 10 g ae/ha): 83% | % visual injury Obs ([16]; Compound A 7.5 g ae/ha): 60% | % visual injury Obs ([16]; Compound A 10 g ae/ha): 63% | % visual injury Obs ([17]; Compound A 7.5 g ae/ha): 75% and 70% | % visual injury Obs ([17]; Compound A 10 g ae/ha): 80% and 78% | % visual injury Obs ([18]; Compound A 7.5 g ae/ha): 3% | % visual injury Obs ([18]; Compound A 10 g ae/ha): 3% | % visual injury Obs ([3]; Compound A 7.5 g ae/ha): 13% | % visual injury Obs ([3]; Compound A 10 g ae/ha): 25% | % visual injury Obs ([4]; Compound A 10 g ae/ha): 45% and 60% | % visual injury Obs ([5]; Compound A 7.5 g ae/ha): 60% | % visual injury Obs ([5]; Compound A 10 g ae/ha): 78% | % visual injury Obs ([19]; Compound A 7.5 g ae/ha): 83% and 85% | % visual injury Obs ([19]; Compound A 10 g ae/ha): 88% | pest or weed control at 7.5 g/ha ([6]; Compound A 7.5 g ae/ha): 63% | pest or weed control at 10 g/ha ([6]; Compound A 10 g ae/ha): 70% | % visual injury Obs ([7]; Compound A 7.5 g ae/ha): 90% | % visual injury Obs ([7]; Compound A 10 g ae/ha): 85% | % visual injury Obs ([20]; Compound A 7.5 g ae/ha): 8% and 0% | % visual injury Obs ([20]; Compound A 10 g ae/ha): 0% | % visual injury Obs ([21]; Compound A 7.5 g ae/ha): 0% | % visual injury Obs ([21]; Compound A 10 g ae/ha): 0%

C#CCOC(=O)c1nc(-c2ccc3cc[nH]c3c2F)c(F)c(N)c1Cl [Compound B, propargyl 4-amino-3-chloro-5-fluoro-6-(7-fluoro-1H-indol-6-yl)pyridine-2-carboxylate]
% visual injury Obs ([11]; Compound B 7.5 g ae/ha): 68% | % visual injury Obs ([11]; Compound B 10 g ae/ha): 68% | % visual injury Obs ([18]; Compound B 7.5 g ae/ha): 10% | % visual injury Obs ([18]; Compound B 10 g ae/ha): 40% | % visual injury Obs ([22]; Compound B 7.5 g ae/ha): 45% | % visual injury Obs ([22]; Compound B 10 g ae/ha): 45%

CS(=O)(=O)c1cc(C(F)(F)F)ccc1C(=O)c1cnoc1C1CC1 [Isoxaflutole, (5-cyclopropyl-4-isoxazolyl)[2-(methylsulfonyl)-4-(trifluoromethyl)phenyl]methanone]
% visual injury Obs ([8]; Isoxaflutole 60 g ai/ha): 53% | % visual injury Obs ([10]; Isoxaflutole 60 g ai/ha): 38% | % visual injury Obs ([11]; Isoxaflutole 60 g ai/ha): 58% | % visual injury Obs ([13]; Isoxaflutole 60 g ai/ha): 85% | % visual injury Obs ([14]; Isoxaflutole 60 g ai/ha): 0% | % visual injury Obs ([18]; Isoxaflutole 60 g ai/ha): 25% | % visual injury Obs ([22]; Isoxaflutole 60 g ai/ha): 70% | pest or weed control at 60 g/ha ([6]; Isoxaflutole 60 g ai/ha): 38%
